Among the data in patent US11325917B2, “Thienopyrazine carboxamides as ubiquitin-specific protease inhibitors” (Valo Health, Inc., priority 2016, dated 2022) are IC50 values, retold here.

The IC50 is the concentration that inhibits the measured activity by half. A lower IC50 goes with greater potency in that assay.

Where only a bound is given, the exact number is not on record here.

In one assay the target is USP28 (Homo sapiens (Human), UniProt Q96RU2). Briefly: Ubiquitin-Rhodamine 110 Assay for USP28 Activity. The format is biochemical. Particulars: Ub-Rh110 substrate 25 nM. As for the experimental part:
Each assay was performed in a final volume of 20 μL in assay buffer containing 20 mM Tris-HCl (pH 8.0, (1M Tris-HCl, pH 8.0 solution; Corning 46-031-CM)), 2 mM CaCl2 (1M Calcium Chloride solution; Sigma #21114) 2 mM BME (2-Mercaptoethanol; Sigma 63689-25ML-F), 0.01% Prionex ([…] filtered, Sigma #G-0411), and 0.01% Triton X-100. Stock compound solutions were stored at −20° C. as 10 mM in DMSO. Up to 1 month prior to the assay, 2 mM test compounds were pre-dispensed into assay plates (Black, low volume; Corning #3820) and frozen at −20° C. Prestamped assay plates were allowed to come to room temperature on the day of the assay. […] Plates were incubated stacked for 90 minutes at room temperature before fluorescence was read on the Envision (Excitation at 485 nm and Emission at 535 nm; Perkin Elmer) or on the PheraSTAR (Excitation at 485 nm and Emission at 535 nm; BMG Labtech).
For follow-up studies, Each assay was performed in a final volume of 15 μL in assay buffer containing 20 mM Tris-HCl (pH 8.0, (1M Tris-HCl, pH 8.0 solution; Corning 46-031-CM)), 3 mM BME (2-Mercaptoethanol; Sigma 63689-25ML-F), 0.03% BGG ([…] filtered, Sigma, G7516-25G), and 0.01% Triton X-100 (Sigma, T9284-10L). […] Fluorescence was read on the Envision (Excitation at 485 nm and Emission at 535 nm; Perkin Elmer) or on the PheraSTAR (Excitation at 485 nm and Emission at 535 nm; BMG Labtech). […]

A further assay concerns the target USP25 (Homo sapiens (Human), UniProt Q9UHP3). Briefly: Ubiquitin-Rhodamine 110 Assay for USP25 Activity. The assay is classed as biochemical. The conditions noted are these: Ub-Rh110 substrate 25 nM. As for the experimental part: The assay was performed in a final volume of 9 μL in assay buffer containing 20 mM Tris-HCl (pH 8.0, (1M Tris-HCl, pH 8.0 solution; Corning 46-031-CM)), 3 mM BME (2-Mercaptoethanol; Sigma 63689-25ML-F), 0.03% BGG (0.22 μM filtered, Sigma, G7516-25G), and 0.01% Triton X-100 (Sigma, T9284-10L). Nanoliter quantities of 10-point, 3-fold serial dilution in DMSO was pre-dispensed into 1536 assay plates (Corning, #3724BC) for a final test concentration of 25 μM to 1.3 nM, top to lowest dose, respectively. Enzyme USP25, construct USP25-His6, (Boston Biochem E-546). […] Fluorescence was read on the Envision (Excitation at 485 nm and Emission at 535 nm; Perkin Elmer) or on the PheraSTAR (Excitation at 485 nm and Emission at 535 nm; BMG Labtech).
For both the USP28 and USP25 assay formats Data were reported as percent inhibition compared with control wells based on the following equation: % inh=1−((FLU−AveLow)/(AveHigh−AveLow)) where FLU=measured Fluorescence, AveLow=average Fluorescence of no enzyme control (n=16), and AveHigh=average Fluorescence of DMSO control (n=16). IC50 values were determined by curve fitting of the standard 4 parameter logistic fitting algorithm included in the Activity Base software package: IDBS XE Designer Model205. […]

Sequence of USP28 (Q96RU2 whole entry): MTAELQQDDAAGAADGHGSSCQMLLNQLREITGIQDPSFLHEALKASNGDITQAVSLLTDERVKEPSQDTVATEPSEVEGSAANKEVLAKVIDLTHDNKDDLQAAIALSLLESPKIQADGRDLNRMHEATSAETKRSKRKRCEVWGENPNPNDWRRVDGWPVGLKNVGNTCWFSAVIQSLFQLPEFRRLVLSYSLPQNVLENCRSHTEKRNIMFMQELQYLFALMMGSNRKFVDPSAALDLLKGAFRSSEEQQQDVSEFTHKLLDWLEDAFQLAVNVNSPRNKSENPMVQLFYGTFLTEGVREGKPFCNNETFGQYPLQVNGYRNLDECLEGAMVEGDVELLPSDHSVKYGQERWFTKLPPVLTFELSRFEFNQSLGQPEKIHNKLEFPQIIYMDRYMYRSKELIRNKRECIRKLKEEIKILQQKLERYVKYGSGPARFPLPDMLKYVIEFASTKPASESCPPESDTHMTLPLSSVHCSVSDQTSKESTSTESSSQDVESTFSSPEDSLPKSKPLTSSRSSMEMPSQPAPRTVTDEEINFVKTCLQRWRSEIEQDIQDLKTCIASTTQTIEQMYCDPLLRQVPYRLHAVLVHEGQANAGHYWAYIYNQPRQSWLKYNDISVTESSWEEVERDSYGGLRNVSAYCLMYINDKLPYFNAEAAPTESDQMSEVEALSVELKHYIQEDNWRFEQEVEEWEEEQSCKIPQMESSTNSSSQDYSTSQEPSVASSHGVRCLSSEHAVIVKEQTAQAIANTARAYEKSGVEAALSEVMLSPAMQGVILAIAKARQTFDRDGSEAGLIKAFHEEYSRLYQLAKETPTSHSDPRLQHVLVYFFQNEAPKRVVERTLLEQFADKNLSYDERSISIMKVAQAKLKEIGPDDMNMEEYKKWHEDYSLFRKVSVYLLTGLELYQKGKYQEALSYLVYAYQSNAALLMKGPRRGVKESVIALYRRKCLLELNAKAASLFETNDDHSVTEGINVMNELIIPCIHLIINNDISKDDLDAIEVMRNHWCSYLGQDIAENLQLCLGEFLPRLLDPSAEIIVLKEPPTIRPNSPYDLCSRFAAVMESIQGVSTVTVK
Sequence of USP25 (Q9UHP3 whole entry): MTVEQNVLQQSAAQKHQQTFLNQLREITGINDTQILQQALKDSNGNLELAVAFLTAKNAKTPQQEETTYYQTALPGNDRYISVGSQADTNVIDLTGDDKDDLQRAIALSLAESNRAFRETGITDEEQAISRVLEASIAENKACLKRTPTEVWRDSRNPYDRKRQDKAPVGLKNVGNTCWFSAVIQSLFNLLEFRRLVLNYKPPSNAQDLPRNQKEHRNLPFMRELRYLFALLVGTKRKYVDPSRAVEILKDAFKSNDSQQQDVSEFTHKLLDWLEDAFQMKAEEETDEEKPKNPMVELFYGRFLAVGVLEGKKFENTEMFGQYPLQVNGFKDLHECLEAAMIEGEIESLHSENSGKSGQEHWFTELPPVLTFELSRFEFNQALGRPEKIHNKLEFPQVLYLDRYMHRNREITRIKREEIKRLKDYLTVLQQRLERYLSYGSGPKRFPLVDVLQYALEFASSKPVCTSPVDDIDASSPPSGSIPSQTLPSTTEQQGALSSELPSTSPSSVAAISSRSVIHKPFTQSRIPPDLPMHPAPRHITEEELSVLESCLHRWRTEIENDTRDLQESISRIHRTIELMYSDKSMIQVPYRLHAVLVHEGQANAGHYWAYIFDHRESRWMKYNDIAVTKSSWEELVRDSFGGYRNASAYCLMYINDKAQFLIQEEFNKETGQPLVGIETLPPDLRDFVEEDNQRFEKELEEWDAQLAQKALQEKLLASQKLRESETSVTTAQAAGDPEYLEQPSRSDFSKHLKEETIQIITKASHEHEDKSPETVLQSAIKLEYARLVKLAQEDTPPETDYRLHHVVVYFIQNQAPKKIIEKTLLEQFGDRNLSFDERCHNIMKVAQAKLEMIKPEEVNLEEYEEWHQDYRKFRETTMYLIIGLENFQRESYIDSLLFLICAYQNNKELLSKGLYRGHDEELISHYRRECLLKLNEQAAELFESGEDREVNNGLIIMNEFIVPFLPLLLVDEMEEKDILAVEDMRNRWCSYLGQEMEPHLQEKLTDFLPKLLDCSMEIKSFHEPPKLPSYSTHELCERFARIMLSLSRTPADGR

In the case of `Cc1cnc2c(N)c(C(=O)NCCc3cc(F)c(N4CC5CNCC(C4)O5)cc3F)sc2n1` [Compound I-20], the IC50 against USP28 and on USP25 was less than 0.2 µM in each case.
